Assay [1] has as its system mouse model of retinal light disorders. As to the kind of experiment: Retinal light disorder model test (ONL thickness). It counts as in vivo. The settings on record: BALB/cCr male mouse, 30 mg/kg oral 30 minutes before 2 hours white light, eyes taken after 4 days. Here is the method: (Retinal Light Disorder Model Test)
The usefulness (improvement rate with respect to retinal light disorders) of the compound of the invention was evaluated using a mouse model of retinal light disorders, generally used as a model of retinal light disorders, (Investigative Ophthalmology & Visual Science, 2002; vol. 43; pp. 1162 to 1167). Here, the improvement rate with respect to the retinal light disorders was calculated based on the thickness of an outer nuclear layer (hereinafter, referred to as “ONL”), which is strongly interfered especially by light application among a retinal cell layers, in a tissue specimen of a perpendicular surface of an eyeball.
Moreover, in the present test, the ONL of a light application group to which only a base was administered was degraded to 30% to 50% of a normal light group.
A test compound was dissolved or suspended in a solvent (1% (w/v) methyl cellulose aqueous solution) and then an administration liquid was prepared so that the test compound to be 30 mg/kg body weight. The dose was set to 10 ml/kg body weight.
A 5-week-old BALB/cCr-based male mouse (weight of approximately 20 g) was bred in a dark place for 48 hours. Subsequently, the test compound administration liquid was orally administered (30 mg/kg). After 30 minutes, […] of white light was continuously applied to the mouse for 2 hours. Next, the mouse was bred in a breeding room with 50 lux of light for 4 days.
An anesthetic (secobarbital sodium) was intraperitoneally administered to anesthetize the mouse and then the mouse was exsanguinated to die. The top portion of the right eyeball was marked with a thread and the eyeball was extracted. […]
The ONL thickness in the tissue specimen was measured for every 200 μm between the optic nerve papilla to where upwardly spaced by 1 mm from the optic nerve papilla using Lumina Vision. The area (AUC) from the optic nerve papilla to where upwardly spaced by 1 mm from the optic papilla in the graph was calculated as an ONL area. […]

The subject of assay [2] is rattlesnake-derived phospholipase A2-II. The assay can be described thus: Phospholipase A2-II activity inhibitory action. It counts as biochemical. The settings on record: 3 μM. The method, then: The inhibitory action of the compound according to the present invention with respect to the activity of the present enzyme was examined using rattlesnake-derived phospholipase A2-II.
The rattlesnake-derived phospholipase A2-II was reacted with 0.030 μCi of 1-palmitoyl-2-[1-^14C]oleoyl-L-3-phosphatidylcholine and the amount of ^14C oleate which was a reaction product was measured by a radiation measurement method. 3 μM of the compound according to the present invention dissolved in dimethyl sulfoxide was added to the reaction system and the inhibition rate of ^14C oleate generation (phospholipase A2-II activity inhibition rate) was measured.

The target in assay [3] is T1, rabbit reticulocyte-derived 15-lipoxygenase (Oryctolagus cuniculus, UniProt P12530).
T1 construct: Rabbit reticulocyte-derived 15-lipoxygenase; from tissue; host or cells: rabbit reticulocytes
T1 sequence (P12530 1-663): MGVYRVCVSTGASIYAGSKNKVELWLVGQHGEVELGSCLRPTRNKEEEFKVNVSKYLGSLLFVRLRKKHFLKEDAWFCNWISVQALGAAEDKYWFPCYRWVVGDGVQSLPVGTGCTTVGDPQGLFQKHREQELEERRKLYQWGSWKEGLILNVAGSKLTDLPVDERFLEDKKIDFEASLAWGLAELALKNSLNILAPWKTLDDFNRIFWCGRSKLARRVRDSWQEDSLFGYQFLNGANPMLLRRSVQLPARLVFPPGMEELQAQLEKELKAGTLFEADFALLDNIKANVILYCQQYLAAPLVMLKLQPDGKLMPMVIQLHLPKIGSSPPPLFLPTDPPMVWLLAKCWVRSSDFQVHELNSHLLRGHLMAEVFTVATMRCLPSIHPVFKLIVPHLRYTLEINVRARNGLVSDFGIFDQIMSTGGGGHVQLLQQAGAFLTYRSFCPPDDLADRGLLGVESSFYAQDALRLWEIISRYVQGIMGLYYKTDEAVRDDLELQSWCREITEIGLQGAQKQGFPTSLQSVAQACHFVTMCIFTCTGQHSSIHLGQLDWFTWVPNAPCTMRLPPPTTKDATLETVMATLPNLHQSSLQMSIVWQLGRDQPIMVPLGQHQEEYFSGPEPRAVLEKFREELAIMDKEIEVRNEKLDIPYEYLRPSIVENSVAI
As to the kind of experiment: 15-Lipoxygenase activity inhibitory action. It counts as biochemical. The method, then:
The inhibitory action of the compound of the present invention with respect to the activity of the present enzyme was examined using rabbit reticulocyte-derived 15-lipoxygenase.
Rabbit reticulocyte-derived 15-lipoxygenase was reacted with 260 μM of linoleic acid and the amount of 13-hydroperoxide which was a reaction product was measured using an absorption spectrometer.

The test system of assay [4] is guinea pig liver microsome-derived lipid peroxidase. As to the kind of experiment: Lipid peroxidase activity inhibitory action. The format is biochemical. The settings on record: 3 μM. Here is the method: The inhibitory action of the compound according to the present invention with respect to the activity of the present enzyme was examined using guinea pig liver microsome-derived lipid peroxidase.
Dunkin-Hartley guinea pig lung-derived lipid peroxidase was reacted with 0.25 M of polyvalent unsaturated fatty acids and the amount of malondialdehyde which was a reaction product was measured by an absorbance determination method. 3 μM of the compound according to the present invention dissolved in dimethyl sulfoxide was added to the reaction system and the inhibition rate of malondialdehyde generation (lipid peroxidase activity inhibition rate) was measured.

pIC50: −log10 of the molar value.

One may read the inhibition as the share of the control response that was lost under treatment. With `CC(=O)N1CCN(c2ccc(N)c(-n3ccnc3)c2)CC1` [Compound 1-1, 4-acetyl-1-(4-amino-3-imidazole-1-yl-phenyl)piperazine], the “ONL thickness improvement rate” value in assay [1] was 100.6%. Also, the “phospholipase A2-II activity inhibition rate” value in assay [2] came out at 12%. For the same compound, in assay [3] (3 μM, substrate linoleic acid 260 μM, read-out: 15-lipoxygenase activity inhibition rate), the inhibition at 3 µM stood at 49%. Besides, the pIC50 in assay [3] (estimated from 49% inhibition at 3 μM, read-out: 50% inhibitory concentration with respect to 15-lipoxygenase activity) was roughly 5.52. For the same compound, the “lipid peroxidase activity inhibition rate” value in assay [4] is recorded as 13%.

These data come from patent US20160145242A1, “PHENYLIMIDAZOLE DERIVATIVE, AND THERAPEUTIC MEDICINE OR PREVENTIVE MEDICINE FOR INFLAMMATORY DISEASE, ETC” (NIPPON SODA CO., LTD., priority 2013, published 2016).
